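Method: 48-hour compound exposure of cells in 96-well plates, five concentrations, linear interpolation of endpoints. The concentration for 50% growth inhibition is given as GI50.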 The source made the active and inactive calls. Cut-off read from the data, not from the text of the source: active = GI50 up to about 1.1 µM and inactive = higher.
How the values were obtained:
Test in all cases: NCI-60 cell line screen, 48 h
KM12 = system: KM12
KM-20L2 = system: KM-20L2
OVCAR-3 = system: OVCAR-3
Malme-3M = system: Malme-3M
SK-MEL-2 = system: SK-MEL-2
SW-620 = system: SW-620
M19-MEL = system: M19-MEL
RXF 393 = system: RXF 393
OVCAR-4 = system: OVCAR-4
SNB-19 = system: SNB-19
HCT-116 = system: HCT-116
LXFL 529 = system: LXFL 529
K562 = system: K562
UACC-62 = system: UACC-62
SK-OV-3 = system: SK-OV-3
DMS-273 = system: DMS-273
NCI-H226 = system: NCI-H226
UO-31 = system: UO-31
SN12C = system: SN12C
M14 = system: M14
SF-295 = system: SF-295
NCI-H522 = system: NCI-H522
RXF 631 = system: RXF 631
OVCAR-5 = system: OVCAR-5
LOX IMVI = system: LOX IMVI
HCC 2998 = system: HCC 2998
CAKI-1 = system: CAKI-1
SK-MEL-5 = system: SK-MEL-5
SK-MEL-28 = system: SK-MEL-28
ACHN = system: ACHN
UACC-257 = system: UACC-257
EKVX = system: EKVX
DMS-114 = system: DMS-114
A549 = system: A549
SNB-75 = system: SNB-75
NCI-H460 = system: NCI-H460
IGROV-1 = system: IGROV-1
SR = system: SR
HL-60 = system: HL-60
OVCAR-8 = system: OVCAR-8
SF-268 = system: SF-268
SF-539 = system: SF-539
HT-29 = system: HT-29
786-0 = system: 786-0
HCT-15 = system: HCT-15
HOP-62 = system: HOP-62
DLD-1 = system: DLD-1
MOLT-4 = system: MOLT-4
U-251 = system: U-251
RPMI-8226 = system: RPMI-8226
A498 = system: A498
TK-10 = system: TK-10
CCRF-CEM = system: CCRF-CEM
NCI-H23 = system: NCI-H23
SNB-78 = system: SNB-78
XF498 = system: XF498
HOP-18 = system: HOP-18
HOP-92 = system: HOP-92
COLO 205 = system: COLO 205
MDA-N = system: MDA-N
DU-145 = system: DU-145
PC-3 = system: PC-3
MDA-MB-231 = system: MDA-MB-231
MDA-MB-435 = system: MDA-MB-435
MCF7 = system: MCF7
T47D = system: T47D
Hs-578T = system: Hs-578T
BT-549 = system: BT-549
NCI/ADR-RES = system: NCI/ADR-RES

Structure (SMILES): CCOC(=O)NC(=O)c1cn(C2OC(CO)C(O)C2O)c(=O)[nH]c1=O (stereo not drawn)
- GI50 (KM12): > 100 µM (inactive)
- GI50 (KM-20L2): > 100 µM (inactive)
- GI50 (OVCAR-3): > 100 µM (inactive)
- GI50 (Malme-3M): > 100 µM (inactive)
- GI50 (SK-MEL-2): > 100 µM (inactive)
- GI50 (SW-620): > 100 µM (inactive)
- GI50 (M19-MEL): > 100 µM (inactive)
- GI50 (RXF 393): > 100 µM (inactive)
- GI50 (OVCAR-4): > 100 µM (inactive)
- GI50 (SNB-19): > 100 µM (inactive)
- GI50 (HCT-116): > 100 µM (inactive)
- GI50 (LXFL 529): > 100 µM (inactive)
- GI50 (K562): > 100 µM (inactive)
- GI50 (UACC-62): > 100 µM (inactive)
- GI50 (SK-OV-3): > 100 µM (inactive)
- GI50 (DMS-273): > 100 µM (inactive)
- GI50 (NCI-H226): > 100 µM (inactive)
- GI50 (UO-31): > 100 µM (inactive)
- GI50 (SN12C): > 100 µM (inactive)
- GI50 (M14): > 100 µM (inactive)
- GI50 (SF-295): > 100 µM (inactive)
- GI50 (NCI-H522): > 100 µM (inactive)
- GI50 (RXF 631): > 100 µM (inactive)
- GI50 (OVCAR-5): > 100 µM (inactive)
- GI50 (LOX IMVI): > 100 µM (inactive)
- GI50 (HCC 2998): > 100 µM (inactive)
- GI50 (CAKI-1): > 100 µM (inactive)
- GI50 (SK-MEL-5): > 100 µM (inactive)
- GI50 (SK-MEL-28): > 100 µM (inactive)
- GI50 (ACHN): > 100 µM (inactive)
- GI50 (UACC-257): > 100 µM (inactive)
- GI50 (EKVX): > 100 µM (inactive)
- GI50 (DMS-114): > 100 µM (inactive)
- GI50 (A549): > 100 µM (inactive)
- GI50 (SNB-75): > 100 µM (inactive)
- GI50 (NCI-H460): > 100 µM (inactive)
- GI50 (IGROV-1): > 100 µM (inactive)
- GI50 (SR): > 100 µM (inactive)
- GI50 (HL-60): > 100 µM (inactive)
- GI50 (OVCAR-8): > 100 µM (inactive)
- GI50 (SF-268): > 100 µM (inactive)
- GI50 (SF-539): > 100 µM (inactive)
- GI50 (HT-29): > 100 µM (inactive)
- GI50 (786-0): > 100 µM (inactive)
- GI50 (HCT-15): > 100 µM
- GI50 (HOP-62): > 100 µM (inactive)
- GI50 (DLD-1): > 100 µM (inactive)
- GI50 (MOLT-4): > 100 µM (inactive)
- GI50 (U-251): > 100 µM (inactive)
- GI50 (RPMI-8226): > 100 µM (inactive)
- GI50 (A498): > 100 µM (inactive)

Structure (SMILES): CC#CC(OCC)(OCC)OCC
- GI50 (KM12): > 100 µM (inactive)
- GI50 (KM-20L2): > 100 µM (inactive)
- GI50 (OVCAR-3): > 100 µM (inactive)
- GI50 (Malme-3M): > 100 µM (inactive)
- GI50 (SK-MEL-2): > 100 µM (inactive)
- GI50 (M19-MEL): > 100 µM (inactive)
- GI50 (RXF 393): > 100 µM (inactive)
- GI50 (TK-10): > 100 µM (inactive)
- GI50 (CCRF-CEM): > 100 µM (inactive)
- GI50 (OVCAR-4): > 100 µM (inactive)
- GI50 (SNB-19): > 100 µM (inactive)
- GI50 (HCT-116): > 100 µM (inactive)
- GI50 (LXFL 529): > 100 µM (inactive)
- GI50 (K562): > 100 µM (inactive)
- GI50 (UACC-62): > 100 µM (inactive)
- GI50 (SK-OV-3): > 100 µM (inactive)
- GI50 (DMS-273): 20.6 µM (inactive)
- GI50 (NCI-H23): > 100 µM (inactive)
- GI50 (NCI-H226): > 100 µM (inactive)
- GI50 (UO-31): > 100 µM (inactive)
- GI50 (SN12C): > 100 µM (inactive)
- GI50 (M14): > 100 µM (inactive)
- GI50 (SF-295): > 100 µM (inactive)
- GI50 (SNB-78): > 100 µM (inactive)
- GI50 (NCI-H522): 53.2 µM (inactive)
- GI50 (XF498): > 100 µM (inactive)
- GI50 (OVCAR-5): > 100 µM (inactive)
- GI50 (HOP-18): > 100 µM (inactive)
- GI50 (LOX IMVI): 18.9 µM (inactive)
- GI50 (HCC 2998): > 100 µM (inactive)
- GI50 (HOP-92): > 100 µM (inactive)
- GI50 (CAKI-1): > 100 µM (inactive)
- GI50 (SK-MEL-5): > 100 µM (inactive)
- GI50 (SK-MEL-28): > 100 µM (inactive)
- GI50 (ACHN): > 100 µM (inactive)
- GI50 (UACC-257): > 100 µM (inactive)
- GI50 (EKVX): > 100 µM (inactive)
- GI50 (DMS-114): 25.8 µM (inactive)
- GI50 (A549): > 100 µM (inactive)
- GI50 (SNB-75): > 100 µM (inactive)
- GI50 (NCI-H460): 81.8 µM (inactive)
- GI50 (IGROV-1): > 100 µM (inactive)
- GI50 (SR): > 100 µM (inactive)
- GI50 (HL-60): > 100 µM (inactive)
- GI50 (COLO 205): 57.1 µM (inactive)
- GI50 (OVCAR-8): > 100 µM (inactive)
- GI50 (SF-268): > 100 µM (inactive)
- GI50 (SF-539): > 100 µM (inactive)
- GI50 (HT-29): > 100 µM (inactive)
- GI50 (786-0): > 100 µM (inactive)
- GI50 (HCT-15): 39.1 µM
- GI50 (HOP-62): > 100 µM (inactive)
- GI50 (DLD-1): > 100 µM (inactive)
- GI50 (MOLT-4): > 100 µM (inactive)
- GI50 (U-251): > 100 µM (inactive)
- GI50 (RPMI-8226): > 100 µM (inactive)
- GI50 (A498): > 100 µM (inactive)

Structure (SMILES): O=S(=O)(O)c1cc(/N=N/c2cc(S(=O)(=O)O)c3ccccc3c2O)ccc1/C=C/c1ccc(/N=N/c2cc(S(=O)(=O)O)c3ccccc3c2O)cc1S(=O)(=O)O
- GI50 (KM-20L2): > 100 µM (inactive)
- GI50 (OVCAR-3): > 553 µM (inactive)
- GI50 (Malme-3M): > 333 µM (inactive)
- GI50 (SK-MEL-2): > 371 µM (inactive)
- GI50 (SW-620): > 605 µM (inactive)
- GI50 (M19-MEL): > 100 µM (inactive)
- GI50 (RXF 393): > 771 µM (inactive)
- GI50 (TK-10): 24.9 µM (inactive)
- GI50 (CCRF-CEM): 20.6 µM (inactive)
- GI50 (OVCAR-4): > 86.5 µM (inactive)
- GI50 (SNB-19): > 733 µM (inactive)
- GI50 (MDA-N): 151 µM (inactive)
- GI50 (DU-145): 303 µM (inactive)
- GI50 (PC-3): 150 µM (inactive)
- GI50 (HCT-116): > 213 µM (inactive)
- GI50 (LXFL 529): > 1000 µM (inactive)
- GI50 (K562): 30.1 µM (inactive)
- GI50 (UACC-62): > 312 µM (inactive)
- GI50 (SK-OV-3): > 630 µM (inactive)
- GI50 (DMS-273): > 83 µM (inactive)
- GI50 (NCI-H23): > 537 µM (inactive)
- GI50 (NCI-H226): 270 µM (inactive)
- GI50 (UO-31): > 367 µM (inactive)
- GI50 (SN12C): > 743 µM (inactive)
- GI50 (M14): 131 µM (inactive)
- GI50 (SF-295): > 462 µM (inactive)
- GI50 (SNB-78): > 100 µM (inactive)
- GI50 (NCI-H522): > 492 µM (inactive)
- GI50 (XF498): > 100 µM (inactive)
- GI50 (MDA-MB-231): 27.3 µM (inactive)
- GI50 (OVCAR-5): 146 µM (inactive)
- GI50 (HOP-18): > 100 µM (inactive)
- GI50 (LOX IMVI): > 305 µM (inactive)
- GI50 (MDA-MB-435): 111 µM (inactive)
- GI50 (HCC 2998): > 100 µM (inactive)
- GI50 (HOP-92): > 80.9 µM (inactive)
- GI50 (MCF7): 310 µM (inactive)
- GI50 (CAKI-1): > 574 µM (inactive)
- GI50 (SK-MEL-5): 86.7 µM (inactive)
- GI50 (SK-MEL-28): 594 µM (inactive)
- GI50 (T47D): 497 µM (inactive)
- GI50 (ACHN): > 483 µM (inactive)
- GI50 (UACC-257): > 291 µM (inactive)
- GI50 (EKVX): > 399 µM (inactive)
- GI50 (DMS-114): > 100 µM (inactive)
- GI50 (A549): > 480 µM (inactive)
- GI50 (SNB-75): > 458 µM (inactive)
- GI50 (NCI-H460): > 437 µM (inactive)
- GI50 (IGROV-1): > 399 µM (inactive)
- GI50 (Hs-578T): 499 µM (inactive)
- GI50 (BT-549): 284 µM (inactive)
- GI50 (SR): 27 µM (inactive)
- GI50 (HL-60): 18.2 µM (inactive)
- GI50 (OVCAR-8): > 755 µM (inactive)
- GI50 (SF-268): > 800 µM (inactive)
- GI50 (SF-539): > 386 µM (inactive)
- GI50 (HT-29): > 457 µM (inactive)
- GI50 (786-0): > 684 µM (inactive)
- GI50 (HCT-15): 98.6 µM
- GI50 (HOP-62): > 668 µM (inactive)
- GI50 (DLD-1): > 100 µM (inactive)
- GI50 (MOLT-4): 22.8 µM (inactive)
- GI50 (U-251): > 716 µM (inactive)
- GI50 (NCI/ADR-RES): 427 µM (inactive)
- GI50 (A498): > 100 µM (inactive)
